Experimental findings from patent US11751567B2, “Steroidal piperidone derivative, synthesis method, and use thereof” (NORTHWEST A&F UNIVERSITY, priority 2021, dated 2023) are described below.

Common to all, as to format: in vivo
The test system of one assay is Aphis citricola. Kind of assay: slide-dip mortality and LC50 test on aphids (Aphis citricola). The conditions noted are these: for mortality at 50 µg/mL / mortality at 75 µg/mL: 24 h, read-out: Corrected mortality (%) Aphis citricola; for LC50: read-out: LC50 of inhibitory activity against Aphis citricola. Here is the method:
(§1) Inhibitory activities of the steroidal piperidone derivatives listed in Tables 1 and 2 against Myzus persicae, Aphis citricola, Brevicoryne brassicae, and wheat aphids were determined through slide-dip method. Specific process: A specified amount of a compound to be tested was accurately weighed and dissolved with acetone as a solvent, and solutions with concentrations of 50 μg/mL and 75 μg/mL were each prepared with a 0.1% Tween-80 aqueous solution, allowed to stand at room temperature for 0.5 h until the sample was completely dissolved, and stored for later use. Then, adult aphids were fixed with double-sided tape on slides with a small brush. One end of the slide with the aphids was immersed in the test solutions for 5 seconds. The excess liquid was absorbed with absorbent paper, and the mortality rates were calculated 24 h after treatment. Acetamiprid was adopted as a positive control, and a 0.1% Tween-80 aqueous solution was adopted as a negative control. and the results are shown in Table 1.

In a further assay the test system is Myzus persicae. Kind of assay: slide-dip mortality test on aphids (Myzus persicae). The following applies: 24 h, read-out: Corrected mortality (%) Myzus persicae. Here is the method:
as §1

A further assay concerns Brevicoryne brassicae. Description: slide-dip mortality test on aphids (Brevicoryne brassicae). The following applies: 24 h, read-out: Corrected mortality (%) Brevicoryne brassicae. Here is the method:
as §1

A further assay relates to Tetranychus truncatus. Kind of assay: slide dipping mortality test on mites. The following applies: slide dipping, process as for aphids, read-out: Corrected mortality (%) Tetranychus truncatus; for mortality at 50 µg/mL: 50 μg/mL; for mortality at 75 µg/mL: 75 μg/mL. On the procedure: as §1
The inhibitory activities of the steroidal piperidone derivatives listed in Table 3 on Tetranychus truncatus were tested through slide dipping.

The next assay concerns rice planthoppers. Kind of assay: foliar spray test against rice planthoppers. The conditions noted are these: 72 h, read-out: Corrected mortality (%) rice planthoppers. On the procedure:
(§2) The toxic activities of the steroidal piperidone derivatives listed in Table 4 against B. tabaci were tested by a foliar spray method. Specific process: A specified amount of a compound to be tested was accurately weighed and dissolved in acetone, and solutions with concentrations of 50 μg/mL and 75 μg/mL were each prepared with a 0.1% of Tween 80 aqueous solution and stored for later use. The pesticide solution was sprayed on the back side of a cucumber leaf, the cucumber leaf was naturally dried, and B. tabaci to be tested were placed on the cucumber leaf. Thiamethoxam was used as a positive control, and acetone was used as a negative control. Several deaths were observed after 7 d of treatment, and the corrected mortality was calculated.
The toxic activities of the steroidal piperidone derivatives listed in Table 5 against rice planthoppers were tested by a foliar spray method. Imidacloprid was used as a positive control, and acetone was used as a negative control. Several deaths were observed after 3 d of treatment, and the corrected mortality was calculated.

For the next assay, the system named is wheat aphids. Description: slide-dip mortality test on aphids (wheat aphids). The following applies: 24 h, read-out: Corrected mortality (%) Wheat aphid. Here is the method: as §1
A further assay has as its system Bemisia tabaci. Kind of assay: foliar spray test on cucumber leaf against B. tabaci. The following applies: 168 h, read-out: Corrected mortality (%) B. tabaci. On the procedure: as §2

≈ marks a conversion by molar mass, not a printed value.

The mortality is the percentage killed. For orientation: LC50 means the concentration lethal to half of the exposed cells or organisms.

Take `C[C@]12CC[C@H](O)CC1CC[C@@H]1[C@@H]2CC[C@@]2(C)[C@H]1CCC(=O)N2C(=O)c1cccc(Br)c1` (stereo partly shown) [Compound (1)-6]: the mortality at 50 µg/mL with Aphis citricola is 44.9%; in the assay with Myzus persicae, 60.2%; in the assay on Brevicoryne brassicae, 51.7%; in the assay on Tetranychus truncatus it was 24.9%; in the assay on rice planthoppers it was 45.2%; with wheat aphids, 59.9%. Moreover, the mortality at 50 µg/mL in the assay with Bemisia tabaci was found to be 56.1%. Moreover, the mortality at 75 µg/mL with Aphis citricola was determined as 78.4%; in the assay with Myzus persicae, 77.5%; with Brevicoryne brassicae, 73.6%; in the assay on Tetranychus truncatus, 55.3%; in the assay with rice planthoppers, 59.2%; in the assay on wheat aphids it was 80%. For the same compound, the mortality at 75 µg/mL with Bemisia tabaci stood at 67.5%.

On to `Cc1ccccc1C(=O)N1C(=O)CC[C@H]2[C@@H]3CC=C4C[C@@H](O)CC[C@]4(C)[C@H]3CC[C@@]21C` [Compound (2)-7], for which the mortality at 50 µg/mL turned out to be 92.1% in the assay on Aphis citricola; 93.2% in the assay on Myzus persicae; 94.4% in the assay with Brevicoryne brassicae; 66.8% in the assay with Tetranychus truncatus; 64.2% in the assay on rice planthoppers; 96% with wheat aphids. For the same compound, in the assay with Bemisia tabaci, the mortality at 50 µg/mL came to 76.3%. Besides, the mortality at 75 µg/mL was determined as 100% with Aphis citricola; 100% in the assay with Myzus persicae; 100% in the assay with Brevicoryne brassicae; 88.5% with Tetranychus truncatus; 79.2% in the assay with rice planthoppers; 100% in the assay with wheat aphids. In the assay on Bemisia tabaci, the mortality at 75 µg/mL stood at 88.5%. Also, the LC50 in the assay with Aphis citricola was found to be 10.3 µg/mL (≈ 24.4 µM).

On to `Cc1cccc(C(=O)N2C(=O)CC[C@H]3[C@@H]4CC=C5C[C@@H](O)CC[C@]5(C)[C@H]4CC[C@@]32C)c1` [Compound (2)-8], for which the mortality at 50 µg/mL in the assay with Aphis citricola is 48.3%; in the assay on Myzus persicae, 43.2%; with Brevicoryne brassicae it was 51.7%; with Tetranychus truncatus, 30.3%; in the assay with rice planthoppers it was 41.9%; in the assay on wheat aphids it was 54.9%. For the same compound, in the assay with Bemisia tabaci, the mortality at 50 µg/mL was found to be 31.8%. For the same compound, the mortality at 75 µg/mL in the assay on Aphis citricola was found to be 70.5%; with Myzus persicae, 69.7%; with Brevicoryne brassicae, 70.1%; with Tetranychus truncatus, 54.4%; in the assay with rice planthoppers, 52.4%; in the assay on wheat aphids, 73.3%. Further, the mortality at 75 µg/mL in the assay on Bemisia tabaci was 56.3%.

For `Cc1ccc(C(=O)N2C(=O)CC[C@H]3[C@@H]4CC=C5C[C@@H](O)CC[C@]5(C)[C@H]4CC[C@@]32C)cc1` [Compound (2)-9], the mortality at 50 µg/mL was 88.8% in the assay with Aphis citricola; 80.7% in the assay with Myzus persicae; 78.7% in the assay with Brevicoryne brassicae; 55.2% in the assay with Tetranychus truncatus; 59.6% with rice planthoppers; 85.5% in the assay on wheat aphids. Moreover, in the assay on Bemisia tabaci, the mortality at 50 µg/mL amounted to 63.4%. Moreover, the mortality at 75 µg/mL in the assay on Aphis citricola was 100%; in the assay on Myzus persicae it was 100%; with Brevicoryne brassicae it was 100%; in the assay on Tetranychus truncatus, 77.5%; with rice planthoppers it was 66.2%; with wheat aphids, 100%. Further, in the assay on Bemisia tabaci, the mortality at 75 µg/mL was 75.9%. Further, in the assay with Aphis citricola, the LC50 stood at 14.2 µg/mL (≈ 33.7 µM).

Consider `C[C@]12CC[C@H](O)CC1=CC[C@@H]1[C@@H]2CC[C@@]2(C)[C@H]1CCC(=O)N2C(=O)c1ccc(C(F)(F)F)cc1` [Compound (2)-12], for which the mortality at 50 µg/mL worked out at 60.7% in the assay on Aphis citricola; 59.1% with Myzus persicae; 61.8% with Brevicoryne brassicae; 33.8% in the assay with Tetranychus truncatus; 54% in the assay on rice planthoppers; 65% in the assay with wheat aphids. In the assay on Bemisia tabaci, the mortality at 50 µg/mL amounted to 47.5%. Also, the mortality at 75 µg/mL with Aphis citricola came out at 83%; in the assay on Myzus persicae, 79.8%; in the assay with Brevicoryne brassicae it was 82.8%; in the assay on Tetranychus truncatus, 55.5%; in the assay on rice planthoppers, 63%; in the assay with wheat aphids, 84.3%. For the same compound, in the assay with Bemisia tabaci, the mortality at 75 µg/mL was 58.6%. For the same compound, the 50% lethal concentration (LC50) with Aphis citricola is 21.9 µg/mL (≈ 46.1 µM).
